Values joined by “and” are separate entries in the source; they are usually repeats but may differ in a detail not shown here. Equal values may be shown once. Read-outs that look alike come from different tables or passages of the source.

Assay [1] has as its target T1, Recombinant human JAK3 catalytic domain (Homo sapiens, UniProt P52333).
T1 construct: amino acids 795-1124; catalog number 08-046; purchased Carna Biosciences 08-046
Description: JAK3 inhibition assay. It is filed as biochemical. How it is done: Recombinant human JAK3 catalytic domain (amino acids 795-1124; catalog number 08-046) was purchased from Carna Biosciences. 0.5 ng JAK3 protein was incubated with 2.5 μg polyGT substrate (Sigma catalog number P0275) in kinase reaction buffer (25 mM Tris pH 7.5, 0.5 mM EGTA, 10 mM MgCl2, 2.5 mM DTT, 0.5 mM Na3VO4, 5 mM b-glycerophosphate, 0.01% Triton X-100, 1 μM non-radioactive ATP, 0.25 μCi ^33P-gamma-ATP (Perkin Elmer, catalog number NEG602K001MC) final concentrations) with or without 5 μL containing test compound or vehicle (DMSO, 1% final concentration), in a total volume of 25 μL, in a polypropylene 96-well plate (Greiner, V-bottom). After 45 min at 30° C., reactions were stopped by adding 25 μL/well of 150 mM phosphoric acid. […] 40 μL/well of Microscint-20 was added, the top of the plates was sealed and readout was performed using the Topcount (Perkin Elmer). Kinase activity was calculated by subtracting counts per min (cpm) obtained in the presence of a positive control inhibitor (10 μM staurosporine) from cpm obtained in the presence of vehicle. The ability of a test compound to inhibit this activity was determined as:
Percentage inhibition=((cpm determined for sample with test compound present−cpm determined for sample with positive control inhibitor) divided by (cpm determined in the presence of vehicle−cpm determined for sample with positive control inhibitor))*100. […]

The subject of assay [2] is IL-6-induced STAT1 phosphorylation (JAK1-dependent pathway). Description: Human whole blood assay (hWBA), IL-6 stimulation, phospho-STAT1 on CD4+ cells. It is filed as cell-based. How it is done:
A flow cytometry analysis was performed to establish JAK1 over JAK2 compound selectivity ex vivo using human whole blood. Therefore, blood is taken from human volunteers who gave informed consent. Blood is then equilibrated for 30 min at 37° C. under gentle rocking, then aliquoted in Eppendorf tubes. Compound is added at different concentrations and incubated at 37° C. for 30 min under gentle rocking and subsequently stimulated for 20 min at 37° C. under gentle rocking with interleukin 6 (IL-6) for JAK1-dependent pathway stimulation or GM-CSF for JAK2-dependent pathway stimulation. Phospho-STAT1 and phospho-STAT5 are then evaluated using FACS analysis. […]
Cells were then washed once with 1×PBS and analyzed on a FACSCanto II flow cytometer (BD Biosciences).
50,000 total events are counted and Phospho-STAT1 positive cells are measured after gating on CD4^+ cells, in the lymphocyte gate. Data are analyzed using the FACSDiva software and the percentage of inhibition of IL-6 stimulation calculated from the percentage of positive cells for phospho-STAT1 on CD4+ cells.
A flow cytometry analysis was performed to establish JAK1 over JAK2 compound selectivity ex vivo using human whole blood. […] Phospho-STAT1 (for IL-6- and IFNα-stimulated cells) and phospho-STAT5 (for IL-2- and GM-CSF-stimulated cells) levels are then evaluated using FACS analysis. […]

T1 sequence (P52333 795-1124): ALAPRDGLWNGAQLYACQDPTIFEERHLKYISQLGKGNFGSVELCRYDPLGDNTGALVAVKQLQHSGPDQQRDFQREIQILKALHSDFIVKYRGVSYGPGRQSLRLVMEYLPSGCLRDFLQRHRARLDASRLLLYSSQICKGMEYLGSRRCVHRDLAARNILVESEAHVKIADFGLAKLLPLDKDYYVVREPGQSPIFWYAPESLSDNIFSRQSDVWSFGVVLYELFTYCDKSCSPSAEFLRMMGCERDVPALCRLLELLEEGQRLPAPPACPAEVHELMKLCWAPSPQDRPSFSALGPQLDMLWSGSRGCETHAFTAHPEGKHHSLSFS

In the case of `Nc1nc2cccc(-c3ccc(CN4CCS(=O)(=O)CC4)cc3)n2n1` [Formula I, 5-[4-(1,1-Dioxothiomorpholin-4-ylmethyl)-phenyl]-[1,2,4]triazolo[1,5-a]pyridin-2-ylamine], the IC50 in assay [1] (average, read-out: IC50 (average)) was more than 3.61 µM; in assay [1] (individual determinations, read-out: IC50), 2.5 µM and 3.2 µM and 3.37 µM and > 4 µM (5×) and > 3.33 µM (2×) and 3.94 µM; in assay [2] (human whole blood, 6 different donors), 11.9 µM. Further, in assay [2] (in vitro whole blood selectivity assay (IL-6 vs GM-CSF)), the “selectivity for JAK1 over JAK2” value is “over 10 fold”.

The values are drawn from US20160296529A1, “AMINOTRIAZOLOPYRIDINE FOR USE IN THE TREATMENT OF INFLAMMATION, AND PHARMACEUTICAL COMPOSITIONS THEREOF” (priority 2012, published 2016).
